Laboratory results taken from US11840525B2, “Use of AURKB small-molecule inhibitors for treatment of non-small cell lung cancer” (Nanjing China-Australia Institute of Translational Medicine …, priority 2016, dated 2023).

How the values were obtained:
gene E2F2 in A549 cells = assay: E2F2 expression in A549 cells (real-time quantitative PCR, Western blot); type: cell-based
MCF-7 = assay: Growth inhibition of tumor cells, MCF-7; type: cell-based; conditions: Homo sapiens, MCF7; read-out: IC50 against tumor cells, MCF-7
Description: (§1) Lung cancer cells A549 were separated into a 96-well plate and respectively added with 10 mM TZ47 stock solution to final concentrations of 0 μM, 0.1 μM, 0.5 μM, 1 μM, 2 μM, 4 μM and 8 μM in respective wells. Then the 96-well plate was incubated at 37° C. for 48 h and the growth of the cells was analyzed by a CCK-8 method. […] It can be seen from Table 1 that TZ47 also plays a desirable role in inhibiting the growth of other cancer cells including colorectal cancer, leukemia, liver cancer, melanoma, breast cancer and ovarian cancer.

A549 xenograft = assay: A549 heterotopic xenograft in nude mice; type: in vivo; conditions: 150 mg/kg
Description: The lung-cancer mouse model was constructed to test the effect of TZ47 on tumor proliferation in vivo. First, A549 cells were inoculated into the mice at the left axilla. When the tumor was proliferated to 100 mm^3, the mice were treated with TZ47 (150 mg/kg), and the weight, tumor volume and diet were observed and recorded. In the sixth week, the mice were anesthetized, and the tumors were photographed and recorded. […] The mice were quickly sacrificed through the dislocation of cervical vertebra, and the solid tumor was collected and weighed.
Next, part of the solid tumor was extracted for the immunohistochemistry assay. […] The solid tumor protein was lysed and analyzed by western blot assay.

[1] = test system: H3S10 phosphorylation in A549 cells; assay: Western blot of histone modifications in A549 cells; type: cell-based
SW480 = assay: Growth inhibition of tumor cells, SW480; type: cell-based; conditions: Homo sapiens, read-out: IC50 against tumor cells, SW480
Description: as §1

CaoV-3 = assay: Growth inhibition of tumor cells, CaoV-3; type: cell-based; conditions: Homo sapiens, read-out: IC50 against tumor cells, CaoV-3
Description: as §1

A549 cells = assay: Autophagy of A549 cells (LC3 western blot); type: cell-based; conditions: increasing concentration of TZ47
HL-60 = assay: Growth inhibition of tumor cells, HL-60; type: cell-based; conditions: Homo sapiens, read-out: IC50 against tumor cells, HL-60
Description: as §1

HepG-2 = assay: Growth inhibition of tumor cells, HepG-2; type: cell-based; conditions: Homo sapiens, HepG2; read-out: IC50 against tumor cells, HepG-2
Description: as §1

[2] = test system: H3S10 ph near the E2F2 promoter in A549 cells; assay: ChIP assay of H3S10 ph near the E2F2 promoter; type: cell-based; conditions: TZ47-treated A549 cells
Description: A549 cells were treated by different concentrations of TZ47, and then total RNAs and total proteins of cells were extracted to detect the expression of gene E2F2. […] To further verify the above results, A549 cells were treated with TZ47 and extracted for chromatin, and the chromatin and an H3S10 ph-specific antibody were then used in the ChIP assay. […] It can be seen from the above tests that TZ47 can inhibit the AURKB activity and further inhibit the level of AURKB histone substrate H3S10 ph on the promoter of gene E2F2, affecting the expression of gene E2F2.
The specific steps were described as follows. • a. Detailed steps and conditions for Western blot assay and real-time quantitative PCR test have been described in the above Examples. • b. Chromatin co-immunoprecipitation (ChIP) • 1) In vivo cross-linking of DNA-protein complex
2×10^6-7 cells were collected by low-speed centrifugation, resuspended in 20 mL of RPMI 1640 medium, added with 550 μL of a 37% formalin solution in a fuming cupboard to a final concentration of 1% and incubated for 10 min. The system was mixed 2-3 times during the incubation. • 2) Termination of cross-linking
The cross-linking system was added with 1.35 mL of 2 M glycine (final concentration: 0.1 M), mixed uniformly and incubated for 10 min. […]
The OD260 value of the supernatant was determined and used to calculate the DNA concentration. […]

SMILES: c1ccc2c(Cc3[nH]c4ccccc4c3Cc3c[nH]c4ccccc34)c[nH]c2c1 [TZ47]
- E2F2 protein level (gene E2F2 in A549 cells; Western blot): reduced
- expression level of gene E2F2 (mRNA) (gene E2F2 in A549 cells; real-time quantitative PCR): significantly reduced
- IC50 (MCF-7): 1870 ± 150 nM
- behavior, diet and weight of the mice versus control group (A549 xenograft): no significant difference
- HE staining of solid tumor (A549 xenograft; also verified with Ki-67): large quantity of necrotic tissues
- tumor volume versus solvent control group (A549 xenograft; sixth week): significantly smaller
- solid tumor weight (tumor growth in vivo) (A549 xenograft; tumor collected and weighed): significant activity in inhibiting the tumor growth
- expression level of AURKB protein in solid tumor (A549 xenograft; western blot of tumor): did not affect
- H3S10 ph modification level in solid tumor (A549 xenograft; western blot of tumor, P<0.05): significantly reduced
- degradation of AURKB protein in A549 cells ([1]; 48 h): did not mediate the degradation
- labeling of other histone residues close to H3S10 ([1]; A549 cells): failed to affect
- phosphorylation level of H3S10 in A549 cells ([1]; different concentrations, 48 h): significantly reduced
- IC50 (SW480): 9430 ± 340 nM
- IC50 (CaoV-3): 4470 ± 120 nM
- degree of cell autophagy (A549 cells): increased significantly
- IC50 (HL-60): 91.6 ± 2.2 nM
- IC50 (HepG-2): 2180 ± 120 nM
- enrichment of histone H3S10 ph near the E2F2 promoter [2]: significantly reduced
